For data set [1] the following is noted: additives needed; cited from earlier work.
Data set [2] concerns rabbits with dry eyes. Description: Tear film osmolality in dry eye rabbit after topical test drop. Type of data set: in vivo. Conditions: 10 μl topical drop. On the procedure: In vivo examples of the invention were conducted on rabbits with dry eyes. The dry eye disorder is created by surgically closing the duct that carries fluid from the main lacrimal gland to the tear film and surgically removing the nictitans and harderian glands. This leaves intact only the accessory glands that lie on the ocular surface. These rabbits develop increased tear film osmolality soon after the operation, a finding that is understood to be due to decreased tear production, and that is characteristic of dry eye. It is recognized that results of ophthalmologic tests using rabbits has close correlation with humans, and therefore the results carry over to humans.
The effect of topically applied isotonic buffer solution with and without VIP on tear film osmolality was studied in the dry eye rabbit. All test drops were ten μl in volume and were applied in each case six minutes after the instillation of proparacaine, which anesthetizes the surface of the eye and prevents reflex tearing. Tear samples were taken with a micropipette system, in the manner described in the article entitled "Osmolarity of Tear Microvolumes in Keratoconjunctivitis Sicca", by Gilbard et al, Arch Ophthalmol 96:677, 1978. Osmolality was measured by freezing-point depression.
The following protocol was used for each drop tested. Six minutes prior to instillation of the test drop proparacaine was instilled. At zero time a tear sample was taken for measurement of osmolality. At one minute the test drop was instilled. At six and at sixteen minutes, tear samples were taken for osmolality measurements. The procedure for instilling each test drop is that the drop of buffered solution was first instilled in the dry eye and measurements were taken followed by a drop of buffered solution containing VIP. The following test drops were instilled: (1) buffer solution, (2) buffer solution containing 2×10^-8 M VIP, (3) buffer solution, (4) buffer solution containing 2×10^-7 M VIP, (5) buffer solution, (6) buffer solution containing 2×10^-6 M VIP. The results are shown in FIGS. 1A, 1B, and 1C and FIGS. 2A, 2B, and 2C, where FIGS. 1 and 2 each represent the results obtained from the same rabbit.
In separate experiments, the effect of topically applied isotonic buffer solution with or without glucagon or secretin on tear film osmolality was studied in dry eye rabbits. All test drops were ten microliters in volume. Tear osmolality was measured one minute prior to drop instillation and five and fifteen minutes after drop instillation. A drop of buffered solution was first instilled in the dry eye and measurements were taken followed by a drop of buffered solution containing glucagon or secretin, depending on the test.

Data set [3] concerns lacrimal gland. Conditions: administered intra-arterially; cited from earlier work.
In data set [4] the test system is rat exorbital lacrimal gland. Conditions: cited from earlier work.
In data set [5] the test system is main (orbital) lacrimal gland. Conditions: administered intravenously to rabbits; cited from earlier work.
Data set [6] deals with dry eye rabbits. In words: Elimination of tracer Tc99m (sodium pertechnetate) from the tear film of dry eye rabbits. Type of data set: in vivo, rabbit. Conditions: VIP 2×10^-6 M in 10 μl radioactive buffer. As to the method: In a separate example, dry eye rabbits were studied by examining the rate of elimination of a tracer substance technectium, Tc^99m, as sodium pertechnetate from the tear film. Essentially equivalent counts of Tc^99m were placed in ten microliters of, in some instances, a buffer solution to serve as a control, and in other instances, a buffer solution containing 2×10^-6 M VIP. Radioactivity present in the tear film was measured over contiguous fifteen second periods for thirty minutes with a gamma camera, and the measurements stored on a computer. The following protocol was used: Rabbits were anesthetized with IM rompun and ketamine. At zero time proparacaine was applied. At five minutes, the radioactive buffer with VIP was instilled in the eye. Radioactivity present in the tear film was then recorded as described. After thirty minutes, proparacaine was again instilled in the eye and the procedure repeated with radioactive buffer alone. […] This increased rate of tracer washout is understood to be indicative of increased tear secretion. In a second similar experiment, the effect of VIP was first tested, and then radioactive buffer alone, and then the effect of VIP again.

Entries after “also recorded” stand apart in the source; their conditions may differ. No end group written: not given here.

On to glucagon, for which the solubility result in data set [1] is “requires the additives glycerin and lactose to render it soluble”. In addition, the “effect on tear film osmolality versus buffer solution alone” value in data set [2] (glucagon 2×10^-6, 2×10^-5, 2×10^-4 M, 5 and 15 min after drop, FIG. 6) is listed as “lowers tear film osmolality more effectively than buffer solution alone; also recorded: dose-dependent decrease in tear film osmolality”.
As to secretin, the “effect on tear film osmolality versus buffer solution alone” value in data set [2] (secretin 2×10^-7, 2×10^-6, 2×10^-5 M, 5 and 15 min after drop, FIG. 7) is listed as “lowers tear film osmolality more effectively than buffer solution alone; also recorded: dose-dependent decrease in tear film osmolality”.
Consider “vasoactive intestinal peptide (HSDAVFTDNYTRLRKQMAVKKYLNSILN; ends and bridges not checked; UniProt P01282 125-152, looked up) [VIP]”, for which the lacrimal gland secretion entry in data set [3] is given as “stimulate lacrimal gland secretion”. In addition, the “protein secretion in vitro” value in data set [4] is “stimulate protein secretion in vitro”. In addition, the “main (orbital) lacrimal gland secretion” value in data set [5] was “can stimulate main (orbital) lacrimal gland secretion”. For the same molecule, the “effect on tear film osmolality versus placebo, same experiment as CCK” value in data set [2] (VIP 2×10^-6 M, FIGS. 3A, 3B) was “decreased tear film osmolality more effectively than a placebo in one of two trials”. In data set [2] (VIP 2×10^-8, 2×10^-7, 2×10^-6 M, samples at 6 and 16 min, FIGS. 1 and 2), the “effect on tear film osmolality versus buffer solution alone” value is on record as “lowers the tear film osmolality more effectively than buffer solution alone; also recorded: dose-dependent decrease in tear film osmolality”. Moreover, the “slope of the elimination curve of Tc99m from tear film, first 15 minutes” value in data set [6] (topical, dry eye rabbit, placebo -0.82, FIG. 4) was -1.65. The “slope of the elimination curves versus radioactive buffer alone, second experiment” value in data set [6] (two VIP tests, FIG. 5) is given as “substantially steeper than for radioactive buffer alone”.

B1: Cholecystokinin (peptide, UniProt P06307 21-115, looked up)
Cholecystokinin: QPVPPADPAGSGLQRAEEAPRRQLRVSQRTDGESRAHLGALLARYIQQARKAPSGRMSIVKNLQNLDPSHRISDRDYMGWMDFGRRSAEEYEYPS
modifications: Cholecystokinin
notes: gastrointestinal hormone tested topically as comparison
Regarding B1, in data set [3], the lacrimal gland secretion entry is “stimulate lacrimal gland secretion”. In addition, in data set [2] (CCK 2×10^-4 M, FIG. 3B), the “effect on tear osmolality versus placebo” value is “did not lower tear osmolality more effectively than a placebo”.

The values above are taken from patent US4745100A, “Stimulation of tear secretion” (Eye Research Institute of Retina Foundation, priority 1986, dated 1988).
